The record followed here is patent publication US8288426B2, “Pesticidal composition comprising fenamidone and an insecticide compound” (Bayer CropScience AG, priority 2006, dated 2012).

Type in all cases: in vivo
What all share (conditions): mortality

One assay concerns Plutella xylostella. Kind of assay: Plutella xylostella - test (cabbage leaf dip, larvae). As for the experimental part:
(§1) To produce a suitable preparation of active compound, 1 part by weight of active compound is mixed with the stated amount of solvent and emulsifier, and the concentrate is diluted with emulsifier-containing water to the desired concentration.
Cabbage leaves (Brassica oleracea) are treated by being dipped into the preparation of the active compound of the desired concentration and are infested with larvae of the diamond back moth (Plutella xylostella) as long as the leaves are still moist.
(§2) After the specified period of time, the mortality in % is determined. 100% means that all the caterpillars have been killed; 0% means that none of the caterpillars have been killed.

For the next assay, the system named is Spodoptera exigua. As to the kind of experiment: Spodoptera exigua - test (cabbage leaf dip, larvae). As for the experimental part:
as §1
Cabbage leaves (Brassica oleracea) are treated by being dipped into the preparation of the active compound of the desired concentration and are infested with larvae of the beet army worm (Spodoptera exigua) as long as the leaves are still moist.
as §2

A further assay has as its system Spodoptera frugiperda. Kind of assay: Spodoptera frugiperda - test (cabbage leaf dip, larvae). Here is the method:
as §1
Cabbage leaves (Brassica oleracea) are treated by being dipped into the preparation of the active compound of the desired concentration and are infested with larvae of the fall army worm (Spodoptera frugiperda) as long as the leaves are still moist.
as §2

`O=[N+]([O-])NC1=NCCN1Cc1ccc(Cl)nc1` [Imidacloprid, imidacloprid]: the “Efficacy in % after 4d” value with Plutella xylostella (20 ppm, first part of Table A) is 5%. Further, in the assay with Spodoptera exigua (20 ppm), the “Efficacy in % after 3d” value was found to be 0%.

Consider `CN1COCN(Cc2cnc(Cl)s2)/C1=N\[N+](=O)[O-]` [Thiamethoxam, thiamethoxam], for which the “Efficacy in % after 4d” value with Plutella xylostella (4 ppm, first part of Table A) is recorded as 0%.

`CN/C(=N\[N+](=O)[O-])NCc1cnc(Cl)s1` [Clothianidin, clothianidin]: the “Efficacy in % after 4d” value with Plutella xylostella (4 ppm, second part of Table A) came out at 0%; in the assay on Spodoptera frugiperda (4 ppm) it was 0%.

On to `N#C/N=C1\SCCN1Cc1ccc(Cl)nc1` [Thiacloprid, thiacloprid], for which the “Efficacy in % after 3d” value in the assay on Spodoptera exigua (100 ppm) came to 10%.

For `CSC1=N[C@@](C)(c2ccccc2)C(=O)N1Nc1ccccc1` [Fenamidone, fenamidone], the “Efficacy in % after 4d” value in the assay with Plutella xylostella (200 ppm, first part of Table A) was 35%; in the assay on Plutella xylostella (200 ppm, second part of Table A) it was 65%; in the assay with Plutella xylostella (500 ppm, first part of Table A), 75%; with Spodoptera frugiperda (200 ppm), 0%. Besides, the “Efficacy in % after 3d” value with Spodoptera exigua (100 ppm) and with Spodoptera exigua (200 ppm) was 0% each time.
